From patent US20250102494A1, “COMPOSITION FOR PREDICTING OXALIPLATIN DRUG EFFICACY, AND USE THEREOF” (SAMSUNG LIFE PUBLIC WELFARE FOUNDATION, priority 2022, published 2025) come the findings set out here.

Where only a bound is given, the exact number is not on record here.

What all share (format): cell-based
One data set relates to Total Cell Line. Nature of the data set: Average oxaliplatin AUC over all colorectal cancer cell lines. The method, then:
(§1) Four hours after the medium change, the cells were treated with oxaliplatin, 5-FU, Irinotecan, and folinic acid. Five days after drug treatment, intracellular ATP expression was determined using the ATPlite assay kit (PerkinElmer), and the data were expressed in terms of cell viability, IC50, and AUC.
As the standard for confirming that cells are sensitive to the drug, the response of the cells to the drug was assumed to be 100%, and the luminescence value of surviving cells after drug treatment was analyzed and compared with the quantified drug response value.
Based on the assumption that the factor that increases the resistance of the organoids to oxaliplatin is an activator or inhibitor that changes the phenotype, the organoids prepared by excluding some or all of activators and inhibitors as shown in Table 4 below were treated with oxaliplatin.
In order to confirm reduced resistance to oxaliplatin, ECT116, RKO, SW620, and LS147T cell lines, which are highly sensitive to oxaliplatin, and HT29, HTC15, CoLo205, and Lovo cell lines, which are low sensitive to oxaliplatin, were used.
When the above results were combined with the results shown by cell lines with high sensitivity to oxaliplatin and cell lines with low sensitivity to oxaliplatin, the result data shown in FIGS. 23 and 24 and Tables 5 to 7 below were obtained.

A further data set relates to CoLo205 cells. Briefly: ATPlite cell viability after oxaliplatin, CoLo205 cells in organoid culture media. The settings on record: FIG. 19. How it is done:
(§2) Advanced DMEM/F12+++ (hereinafter referred to as “Ad/DF+++”) was used to produce colorectal cancer organoids. Ad/DF+++ was refrigerated at 4° C. until use, and was used in a cold state during cell washing. Ad/DF+++ medium containing the reagents shown in Table 1 below along with Ad/DF 1× (Gibco) was prepared.
(§3) After preparing the Ad/DF+++ medium containing the above reagents, an appropriate amount of Matrigel (Corning #356231) was added so that the ratio between Matrigel and cells suspended in the Ad/DF+++ medium was 7:3. Then, the cells were plated on low attachment well plates at an appropriate density. The density and the type and number of well plates were determined according to the characteristics of each cell type. […]
(§4) If the organoids were expanded as needed for the experiment, the medium was carefully removed, taking care not to touch the Matrigel. […] After suspending the pellet in Ad/DF+++, the cells were counted and diluted with medium according to the required number of cells. […]
(§5) Four hours after the medium change, the cells were treated with oxaliplatin, 5-FU, Irinotecan, and folinic acid. Five days after drug treatment, intracellular ATP expression was determined using the ATPlite assay kit (PerkinElmer), and the data were expressed in terms of cell viability, IC50, and AUC. […]
(In ATP-based viability assays light output follows the ATP content of the culture.)

The subject of another data set is RKO cells. Nature of the data set: ATPlite cell viability after oxaliplatin, RKO cells in organoid culture media. How it is done: as §2
(§6) After preparing the Ad/DF+++ medium containing the above reagents, an appropriate amount of Matrigel (Corning #356231) was added so that the ratio between Matrigel and cells suspended in the Ad/DF+++ medium was 7:3. Then, the cells were plated on low attachment well plates at an appropriate density. The density and the type and number of well plates were determined according to the characteristics of each cell type. The medium was prepared according to the composition shown in Table 2 below, and the cells were cultured (expanded) until the required level was reached while the medium was replaced every 3 to 4 days.
(§7) If the organoids were expanded as needed for the experiment, the medium was carefully removed, taking care not to touch the Matrigel. The cells were separated from the Matrigel by pipetting about 20 times with 1 ml of cold Ad/DF+++. The cells in 1 to 4 wells per 6-well plate were collected in one 50 ml tube. If cells are collected from more than 4 wells into one tube, the Metrigel may not be washed properly. For this reason, the cells were placed in several tubes. […] After suspending the pellet in Ad/DF+++, the cells were counted and diluted with medium according to the required number of cells. […]
as §1
(§8) As the standard for confirming that cells are sensitive to the drug, the response of the cells to the drug was assumed to be 100%, and the luminescence value of surviving cells after drug treatment was analyzed and compared with the quantified drug response value. […]

The test system of the next data set is HCT15 cells. Briefly: ATPlite cell viability after oxaliplatin, HCT15 cells in organoid culture media. How it is done:
as §2, §3, §4, §5

Another data set relates to HT29 cells. Briefly: ATPlite cell viability after oxaliplatin, HT29 cells in organoid culture media. The method, then: as §2, §3, §4, §5
A further data set deals with SW620 cells. Nature of the data set: ATPlite cell viability after oxaliplatin, SW620 cells in organoid culture media. How it is done: as §2, §6
If the organoids were expanded as needed for the experiment, the medium was carefully removed, taking care not to touch the Matrigel. The cells were separated from the Matrigel by pipetting about 20 times with 1 ml of cold Ad/DF+++. The cells in 1 to 4 wells per 6-well plate were collected in one 50 ml tube. If cells are collected from more than 4 wells into one tube, the Metrigel may not be washed properly. For this reason, the cells were placed in several tubes. Thereafter, Ad/DF+++ was poured to 20 to 50 ml of each tube, followed by centrifugation at 400 g for 3 minutes at 4° C. The cells were dissociated with 1 to 2 mL of TrypLE™ Express Enzyme (Gibco, 1264-013), transferred to low-attachment 24 well plates, and then treated with 10 μM of Y-27632. Next, the cells were cultured in a CO2 incubator for 5 minutes at 37° C. After pipetting about 20 times, whether the cells would be dissociated into single cells was checked by microscopic observation. If the cells were not dissociated into single cells, the culture under CO2 and pipetting processes were repeated. […] After suspending the pellet in Ad/DF+++, the cells were counted and diluted with medium according to the required number of cells. […]
as §1, §8

A further data set has as its system LS147T cells. Nature of the data set: ATPlite cell viability after oxaliplatin, LS147T cells in organoid culture media. How it is done:
as §2, §6, §7, §1, §8

In another data set the test system is LoVo cells. Briefly: ATPlite cell viability after oxaliplatin, LoVo cells in organoid culture media. The method, then:
as §2, §3, §4, §5

`O=C1[O][Pt]2([NH][C@@H]3CCCC[C@H]3[NH]2)[O]C1=O` [oxaliplatin] came in with an EX1_AUC in the data set with Total Cell Line (average over total cell lines, Ex1 medium) of 408.05. The EX2_AUC with Total Cell Line (average over total cell lines, Ex2 medium) was 384.32. Also, the normal_AUC in the data set on Total Cell Line (average over total cell lines, normal cell-line culture) is given as 330.83. In the data set on Total Cell Line (total cell lines), the “EX1 − EX2 (AUC difference)” value is 23.73. For the same compound, the “AUC values of Ex2 to Ex4 compared with Ex1” value with CoLo205 cells is listed as “higher than that of Ex1”; in the data set on LoVo cells (LoVo, FIG. 21) it was “higher than that of Ex1”. The “AUC value, Ex1 to Ex4 compared” value is recorded as “the lowest in the organoid culture conditions of Ex2” in the data set with RKO cells (FIG. 6); “decreased under the organoid culture conditions of Ex2” in the data set on HCT15 cells (FIG. 17); “Ex1 to Ex3 showed similar AUC values, but Ex4 showed slightly lower AUC values than Ex1 to Ex3” in the data set on HT29 cells (HT29, FIG. 15). In addition, the “IC50 value, Ex2 compared with Ex1” value in the data set with RKO cells (FIG. 7) is “significantly lower in Ex2 than in Ex1”; with SW620 cells (SW620, FIG. 10), “lower in Ex2 than in Ex1”; in the data set with LS147T cells (FIG. 13) it was “higher in Ex2 than in Ex1”. Further, the “cell viability versus oxaliplatin concentration” value was “fastest decrease in cell viability, followed by Ex2” with RKO cells (MEM control, Ex1, Ex2, FIG. 8); “did not decrease under all the culture conditions” with HT29 cells (HT29 cell line and Ex1 to Ex4, FIG. 16). Moreover, the cell viability in the data set with HCT15 cells (Ex2 and Ex4, log [oxaliplatin] value 2, FIG. 18) is on record as not below 50%; in the data set with SW620 cells (SW620 in Ex2, log [oxaliplatin] value 1, FIG. 11), 50%; in the data set with LoVo cells (LoVo organoids, log [oxaliplatin] values approaching 2, FIG. 22) it was not below 50%. Further, the “AUC value, Ex2 compared with other organoid culture conditions” value with SW620 cells (SW620, FIG. 9) is “lower in the organoid culture conditions of Ex2”; in the data set on LS147T cells (FIG. 12) it was “lower in the organoid culture conditions of Ex2”. Also, the “AUC value, Ex3 and Ex4 compared with Ex1” value in the data set with SW620 cells (SW620, FIG. 9) is reported as “no significant difference in AUC values from Ex1”; in the data set with LS147T cells (FIG. 12) it was “no difference in AUC values from Ex1”.

One may read the cell viability as a read-out of living cells in per cent, often relative to untreated cells. Higher therefore signals less harm to the cells.
